{"source": "patent US9931679B2", "about": "“Method for cleaning hard surfaces” (KIMBERLY-CLARK WORLDWIDE, INC., priority 2013, dated 2018)", "system": "Pseudomonas aeruginosa (ATCC 27853)", "assay": "Zone of Inhibition Test (AATCC 147-1998, modified)", "type": "cell-based", "details": "diameter of inhibited colony formation; 1.5 by 1.5 cm test material on inoculated agar plate, 48 hours at ambient temperature", "experimental": "Zone of inhibition testing with a variety of gram negative and gram positive bacteria was performed. The test material was brought into contact with a known amount of test microorganisms on an agar plate for 48 hours at ambient temperature. At the end of the contact time the diameter of inhibited colony formation (zone of inhibition) surrounding the test material was measured. […] Referenced method AATCC 147-1998 “Antibacterial Activity Assessment of Textile Materials: Parallel Streak Method” with changes for following Zone of Inhibition procedure (AATCC is “American Association of Textile Chemists and Colorists” located in Research Triangle Park, N.C.): Organisms used in this study were Escherichia coli (ATCC 11229)/Staphylococcus aureus (ATCC 6538)/Pseudomonas aeruginosa (ATCC 27853) (ATCC is “American Type Culture Collection” an organization in Manassas, Va.). Washed cells were diluted in Butterfield's Phosphate buffer to a target titer of approximately 10^8 colony forming units (CFU)/mL. Agar plates for testing were brought to room temperature prior to inoculation. A sterile applicator swab was placed in cell suspension and excess fluid was expressed using the side of the centrifuge tube. […] At the end of the contact time, the diameter of inhibited colony formation (zone of inhibition) surrounding the test material was measured.", "data": [{"smiles": "CN[C@H](CC(C)C)C(=O)N[C@H]1C(=O)N[C@@H](CC(N)=O)C(=O)N[C@H]2C(=O)N[C@H]3C(=O)N[C@H](C(=O)N[C@H](C(=O)O)c4cc(O)cc(O)c4-c4cc3ccc4O)[C@H](O)c3ccc(c(Cl)c3)Oc3cc2cc(c3O[C@@H]2O[C@H](CO)[C@@H](O)[C@H](O)[C@H]2O[C@H]2C[C@](C)(N)[C@H](O)[C@H](C)O2)Oc2ccc(cc2Cl)[C@H]1O", "note": "[Positive Control, vancomycin]", "values": [{"measurement": "P. aeroginosa ZOI* (cm)", "value": 1.9, "unit": "cm"}]}]}
